Laboratory results as given in patent publication US20190091177A1, “METHOD OF TREATING SELECTED PATIENT POPULATION EXPERIENCING DRAVET SYNDROME” (ZOGENIX INTERNATIONAL LIMITED, priority 2017, published 2019).
Read-outs that look alike come from different tables or passages of the source.

Experiments:
[1] = tested on: patients with Dravet syndrome; assay: Study 1: Phase 3 randomized, double blind, placebo controlled study (ZX008-1501/ZX008-1502) of liquid fenfluramine formulation as adjunctive therapy; assay type: in vivo, human
Description: The first 119 subjects to be randomized in both identical studies combined were analyzed and reported as Study 1 (FIG. 1), covered by a Statistical Analysis Plan (SAP).
Primary and key secondary endpoints in the Study 1 SAP were pre-determined. All patients were treated twice per day over a period of 14 weeks using an oral syringe to administer the formulation. The treatment period included a two-week titration period and a 12-week maintenance period.
The initial results of Study 1 are outlined below. The randomized, double blind, placebo controlled, Phase 3 study enrolled 119 patients across sites in the United States, Canada, Europe and Australia. The median age of patients was 8 years, the mean age of patients was 9 years (range, 2-18 years) (FIG. 2).
Patients were titrated to their target dose over two weeks, and then remained at that fixed dose for 12 weeks. The mean baseline convulsive seizure frequency across the study groups was approximately 40 seizures per month. 110 (92%) patients completed the study (85% 0.8 mg/kg/day; 100% 0.2 mg/kg/day; 93% placebo).
The proportion of patients who achieved ≥75% seizure reductions, a secondary (non-key) efficacy measure, is also presented.
The mean number of convulsive seizure free days, defined as a day for which diary data are available and no convulsive seizures have been reported, was determined for each treatment group during the Baseline and T+M Periods. Using a parametric analysis, comparisons for the ZX008 groups to placebo were estimated from an ANCOVA model with treatment group (3 levels) and age group (<6 years, ≥6 years) as factors, log baseline number of convulsive seizure free days as a covariate and log convulsive seizure free days (Titration+Maintenance, or Maintenance Period) as response. The mean (SD) number of convulsive seizure free days per 28 days during the Baseline Period was 12.6 (7.68), 15.7 (6.80), and 14.6 (7.59) for the placebo, 0.2 and 0.8 mg/kg/day groups, respectively. […]

[2] = tested on: patients with Dravet syndrome; details: cited from earlier work; for >50% Reduction in Seizures (patients) / Seizure-free Patients: fenfluramine and valproate, average daily dose 0.34 mg/kg/day for 1 to 22 years, 12 patients, 0.34 mg/kg/day
[3] = long-term fenfluramine treatment

CCNC(C)Cc1cccc(C(F)(F)F)c1 (racemic) [Fenfluramine, (RS)-N-ethyl-1-[3-(trifluoromethyl)phenyl]propan-2-amine]
Mean (SD) non-convulsive seizure frequency per 28 days at the end of the T+M Period ([1]; 0.2 mg/kg/day, baseline 193.6 (478.45)): 93.7 (219.69) per 28 days
Reduction from Baseline in non-convulsive seizure frequency (%, [SD]) ([1]; 0.8 mg/kg/day, end of T+M Period): 59.1% (40.14)
Mean (SD) non-convulsive seizure frequency per 28 days at the end of the T+M Period ([1]; 0.8 mg/kg/day, baseline 335.2 (758.58)): 127.9 (297.39) per 28 days
>50% Reduction in Seizures (patients) [2]: 9/12 (75%)
Seizure-free Patients [2]: 8/12 (66%)
>50% Reduction in Seizures (patients) ([2]; listed as fenfluramine): 75%
Seizure-free Patients ([2]; listed as fenfluramine): 66.6%
Echocardiography monitoring for possible heart valve defects [2, 3]: No clinically relevant defects were identified
Effect on types of seizures [2, 3]: effectively reduced the incidence of all types of seizures
